“And” between values parts separate entries of the source, which are not always exact repeats. Equal entries are not always repeated. Residues, ends and D or L forms follow the SMILES beside them. *: point of attachment. Cbz = O=C(OCc1ccccc1)*; NHPh = c1ccc(N*)cc1; OtBu = CC(C)(C)O*
Molecular target: T1, FGF13R110A/Nav1.7 complex (Homo sapiens, UniProt Q15858+Q92913, R110A)
T1 construct: Full-length FGF13-1b (aa 1-192) was subcloned into appropriate plasmids; Nav1.7 residues 1780-1977; expressed in transfected cells; host or cells: HEK293 (inferred; the LCA paragraph only says 'cells')
T1 sequence (Q92913 1-192 isoform Q92913-2 R57A): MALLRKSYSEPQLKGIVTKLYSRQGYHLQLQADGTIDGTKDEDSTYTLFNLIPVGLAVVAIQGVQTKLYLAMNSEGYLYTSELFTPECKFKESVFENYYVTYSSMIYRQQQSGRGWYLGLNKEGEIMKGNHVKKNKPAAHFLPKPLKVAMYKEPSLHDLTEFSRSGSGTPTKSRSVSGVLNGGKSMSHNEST
T1 sequence (Q15858 1791-1988): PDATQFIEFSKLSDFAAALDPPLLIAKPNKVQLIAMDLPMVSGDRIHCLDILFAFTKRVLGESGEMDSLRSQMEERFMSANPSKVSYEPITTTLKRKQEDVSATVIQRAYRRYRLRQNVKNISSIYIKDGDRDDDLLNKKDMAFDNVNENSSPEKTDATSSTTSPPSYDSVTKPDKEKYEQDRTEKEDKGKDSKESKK
Assay: LCA, CLuc-FGF13R110A/CD4-Nav1.7-CTD-NLuc
Type: cell-based
Settings: for activity against the FGF13R110A/Nav1.7 complex: LCA, PW164 20 μM, ZL192 50 μM
Excerpt: The respective gene ID numbers used in this study are as follows: NM_033642 (human, FGF13-1b) and NM_002977 (human SCN9A). Full-length FGF13-1b (aa 1-192) was subcloned into appropriate plasmids for use in this investigation, unless otherwise noted. For consistency with AlphaFold modeling presented, numbering of point mutations to FGF13-1b are based on the longest FGF13 isoform (FGF13-1a, NM_004114.2). CLuc-FGF13, […]
and constructs expressing the CLuc or the NLuc fragments of Firefly ( Photinus pyralis) luciferase (24) respectively were engineered, mutated (CLuc-FGF13R110A) and sequenced at the Molecular Genomics Core (University of Texas Medical Branch). The CD4 -Nav1.7-CTD-NLuc cassette was synthesized from GeneArt (Nav1.7 residues 1780-1977) (ThermoFisher) and subcloned at 5'-HindIII and 3’-BsiWi restriction sites in pcDNA3.1 (Invitrogen). Additionally, FGF13 was amplified with polymerase chain reaction (PCR) by using gene-specific primers, and subcloned in pcDNA3.1 at 5’ -BsiWi and 3’-Not I restriction sites. […]
Cell Culture and transfections
HEK293 cells were purchased from ATCC (catalog # CRL-1573). Cells were cultured and incubated at 37 °C with 5% CO2 in medium with equal volumes of Dulbecco modified essential medium (DMEM) and F12 […]
Split-luciferase Complementation Assay (LCA)
Twenty-four hours post transfection, cells were trypsinized using TrypLE (Gibco; cat # 12604013), centrifuged at 1750 rpm for 5 min, triturated in medium, and seeded into white clear-bottom 96-well CELLSTAR µClear® plates (Greiner Bio -One; cat # 655073 ) at ~0.8 x 10^5 cells per well in 200 µl of medium. The cells were incubated for another 24 hours, and then the growth medium was replaced with 100 µl serum -free, phenol red -free DMEM/F-12 medium (Invitrogen). All compounds from the PW - and the ZL-series, including PW164 and ZL192, were dissolved in DMSO, added to a final concentration of 1 –500 μM (0.5 % DMSO) in the serum -free medium and then cells were incubated for two hours. The bioluminescence reaction was initiated by injection of 100 μl of D -luciferin substrate (1.5 mg/ml dissolved in PBS) using a Synergy H4 multimode microplate reader (BioTek). Luminescence readings were initiated after 3 s of mild plate shaking and performed at 2 min intervals for 20-30 min with integration times of 0.5 s, and the c ells were maintained throughout the measurements at 37 °C. Raw signal intensity was computed by averaging peak luminescence plus two adjacent time points.
Normalized signal intensity was expressed as the percentage of mean signal intensity relative to per plate control wells treated with 0.5% DMSO.
Surface plasmon resonance (SPR)
All SPR experiments were performed on a Biacore T100 (GE Healthcare). Biotin-Nav1.7-CTD peptide […]

| SMILES | Percentage luminescence, single replicates (Fig 1B, FGF13R110A, PW164 (20 μM)) | activity against the FGF13R110A/Nav1.7 complex | LCA signal, FGF13R110A (Figure 1B), individual replicates (FGF13R110A, ZL192 vs Vehicle) |
| --- | --- | --- | --- |
| COC(=O)[C@@H](NC(=O)[C@H](CCC(=O)OC(C)(C)C)NC(=O)[C@H](CC(C)C)NC(=O)[C@@H]1CCCN1C(=O)OCc1ccccc1)C(C)C [PW164] (Cbz-PLE(OtBu)V-OMe) | 93.615% and 94.3116% and 89.4358% and 83.8635% and 99.0481% and 84.8386% and 92.9185% and 91.1075% and 93.4757% and 87.3462% and 108.8% | prevented PW164 binding |  |
| CC(=O)N[C@@H](Cc1ccccc1)C(=O)N[C@@H](CC(C)C)C(=O)N1CCC[C@H]1C(=O)N[C@@H](CCCCN)C(=O)Nc1ccccc1 [ZL192] (Ac-FLPK-NHPh) |  | no agonist activity | 170.87 and 102.219 and 90.2721 and 84.4389 and 144.478 and 146.648 and 93.2954 and 156.251 and 109.034 and 101.512 and 90.7701 and 115.348 |

— publication PMC12259270, “Sensory neuron–expressed FGF13 controls nociceptive signaling in diabetic neuropathy models” (The Journal of Clinical Investigation, 2025)
